How the values were obtained:
[1] = pharmacological and toxicological activity of product (I) compared with compounds (V) and (VI); conditions: new isomers distribution (low isomer B content) with respect to compounds (V) and (VI)
[2] = solubilisation of intermediate (II) in DMF and THF/MeOH 1/1, HPLC analysis of the solutions; format: physicochemical; conditions: 2 mg/ml, isomer B precipitates
Method: Experimental Proof of the Difficulty of Preparing Solutions of (II), Due to the Low Solubility of the Isomer B.
Two samples of the same batch of intermediate (II) are solubilised (2 mg/ml) in, DMF and THF/MeOH 1/1. The solutions are appropriately diluted and analysed in HPLC. […] This behaviour can lead to the preparation of samples having variable composition and, ultimately, to the production of not reliable analytical data including the ones concerning the other isomers

Substance	difference in terms of pharmacological and toxicological activity [1]	solubility of the isomer B in comparison to the other isomers [2]
[1.8(11),15(18),22(25)-tetrakis-(3-N,N,N-trimethylammonium phenoxy)] Zinc Phthalocyaninate Tetrachloride “With Low Isomer B Content” [(I)]	does not imply any difference	–
[1,8(11),15(18),22(25)-tetrakis-(3-N,N-dimethylamino phenoxy)] Zinc Phthalocyaninate [isomer B]	–	lower solubility

From patent publication US10730890B2, “Phthalocyanine derivative consisting of a mixture of 4 isomers” (MOLTENI THERAPEUTICS S.R.L., priority 2009, dated 2020)
